Where a SMILES comes first, the peptide text is derived from it. The star is where a group is joined. NH(6-Ac-2-naphthyl) = CC(=O)c1ccc2cc(N*)ccc2c1

The subject of data set [1] is caspase-1 in primary cortical neurons. The data set can be described thus: TPFM of caspase-1 activation in glucose-deprived primary cortical neurons. Format: cell-based, mouse. To be noted: 50 μM, added 1 h prior to the probe (t = 7 h during GD).
Description: NC: neuron cells incubated in normal neurobasal medium.
All two-photon images were taken on a Leica TCS SP5X Confocal Microscope System. […] Dissociated neuron-enriched cell cultures of cerebral cortex were established from day 16 C57BL/6 mouse embryos, as described[53]. Primary neurons were cultured in the neurobasal medium (Gibco) with 2% B27 and 0.5 mM GlutaMAX. Experiments were performed in 7–9 day-old cultures. For glucose-deprivation studies, glucose-free neurobasal medium was used (with other components fixed). The cultured neurons were incubated in glucose-free medium for 8 h, while control cells were incubated in normal neurobasal medium.
Caspase-1-like activities detected in primary cortical neurons of C57BL/6 mouse underwent
glucose-deprivation (GD) treatment.
neurons grown in normal culture medium and incubated with C1RB/C1FS for 1 h (NC). Panels 2/5: primary neuron
underwent GD induction for 8 h and incubated with C1RB/C1FS for 1 h.
(50 μM) was added 1 h earlier (t = 7 h) than C1RB/C1FS.
TPFM imaging of caspase activities in primary cortical neurons and fresh tissues.
Dissociated neuron-enriched cell cultures of cerebral cortex were established from day 16 C57BL/6 mouse embryos, as described.14 Primary neurons were cultured in the neurobasal medium (Gibco) with 2% B27 and 0.5 mM GlutaMAX. Experiments were performed in 7-9 day-old cultures. […]
Data set [2] deals with NIH/3T3, BV2 and HeLa cells. The data set can be described thus: XTT cytotoxicity assay. Format: cell-based, mouse, human. To be noted: XTT assay, 12, 30, 60, 120 μM, 24 h. The protocol: Supplementary Figure 4. Cytotoxicity of two-photon enzymatic probes (12, 30, 60, 120 μM) in mammalian cells (NIH/3T3, BV2 and HeLa) after incubation for 24 h, as determined by XTT assay. […]
Detection of caspase activities in mammalian cells and tissues
Cell culture. The mouse embryonic fibroblast cell line (NIH/3T3), mouse microglial cell line (BV2) and human epithelial carcinoma cell line (HeLa) used in our experiments were cultured in Dulbecco’s Modified Eagle's Medium (DMEM) supplemented with 10% (for NIH/3T3 and HeLa) or 5% (for BV2) fetal bovine serum (FBS), 100.0 mg/L streptomycin and 100 IU/mL penicillin in a humidified atmosphere of 5% CO2 at 37 °C.
XTT assay. The cytotoxicity of our probes was determined by using the XTT colorimetric cell proliferation kit (Roche) following manufacturer’s guidelines. Briefly, NIH/3T3, BV2 and HeLa cells were seeded in 20~30% confluency (since they will reach >50% confluency within 24 h) into 96-well plates and incubated overnight before the addition of probes with concentrations of 12 μM, 30 μM, 60 μM and 120 μM, respectively. Probes were applied from DMSO stocks whereby DMSO never exceeded 1% in the final solution. The same volume of DMSO was used as a negative control; and the same volume of STS (200 nM) was used as a positive control. After a total treatment time of 24 h, proliferation was assayed using the XTT assay (Supplementary Fig. 4). […]

Assay in data set [3]: not given
The source holds these as a separate data set.

Assay in data set [4]: not given
The source holds these as a separate data set.

The target of another data set is T1, caspase-1 (Homo sapiens, UniProt P29466).
T1 construct: purchased Merck
T1 sequence (P29466 120-297 limits assumed): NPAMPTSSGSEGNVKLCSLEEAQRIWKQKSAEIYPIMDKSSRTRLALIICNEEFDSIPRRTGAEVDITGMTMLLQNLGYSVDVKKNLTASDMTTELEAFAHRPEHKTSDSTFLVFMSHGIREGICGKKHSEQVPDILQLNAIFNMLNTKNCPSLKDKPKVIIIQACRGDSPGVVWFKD
T1 sequence (P29466 317-404 limits assumed): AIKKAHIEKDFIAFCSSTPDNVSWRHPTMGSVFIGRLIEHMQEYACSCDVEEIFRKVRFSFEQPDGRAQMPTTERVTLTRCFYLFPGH
The data set can be described thus: S/N ratio of caspase-1 probes in BV2 lysates spiked with caspase-1. Format: biochemical. To be noted: probe 6 μM, 25 μg BV2 lysates spiked with caspase-1, 37 °C, 2 h; among the four caspase-1 probes. Here is the method:
Figure 2 Photophysical and enzymatic properties of caspase probes. (a) Photophysical and kinetic properties of probes and free dyes. All measurements were taken in 50 mM HEPES, 50 mM NaCl, 0.1% CHAPS, 10 mM EDTA, 5% glycerol, 10 mM DTT, at pH = 7.2. (b) Time-dependent ratiometric fluorescence changes of C1RB (6 μM) incubated with caspase-1 (10 nM) over 2 h at room temperature. Data were obtained by plotting the normalized ratio of fluorescence intensity at 500 nm (F500 nm) over that at 450 nm (F450 nm). (Inset) time-dependent fluorescence emission spectra with λex = 350 nm. (c) Time-dependent “Turn-ON” effect of C1FS (6 μM) incubated with caspase-1 (10 nM) measured and normalized at 460 nm (F460 nm) over 2 h at room temperature, with the corresponding fluorescence emission spectra (inset). λex = 350 nm. (d) Normalized S/N ratio of each of the four caspase-1 probes (6 μM) incubated with 25 μg of BV2 lysates spiked with different concentrations of caspase-1 (37 °C, t = 2 h). S and N represent the fluorescence emission intensity of each reaction solution in the presence (S) and absence (N) of caspase-1. […] (−) no caspase; (caspase-1) 1.5 nM; (caspase-3) 0.8 nM; (caspase-6) 0.2 μM; (caspase-8) 10 nM; (caspase-9) 0.5 μM. […] Normalized, relative fluorescence (RFU) values were obtained after 2-h incubation at room temperature. […]

In the case of `CCO[C@@H]1OC(=O)C[C@@H]1NC(=O)[C@@H]1CCCN2C(=O)CC[C@H](NC(=O)c3nccc4ccccc34)C(=O)N12` [Pralnacasan], the “effect of inhibitor on C1RB/C1FS fluorescence signals in glucose-deprived neurons” value in data set [1] was “inhibited”.

`CC(=O)N[C@@H](Cc1c[nH]c2ccccc12)C(=O)N[C@@H](CCC(=O)O)C(=O)N[C@@H](Cc1c[nH]cn1)C(=O)N[C@@H](CC(=O)O)C(=O)Nc1ccc2cc(C(C)=O)ccc2c1` [C1RB, Ac-WEHD-AAN] (Ac-WEHD-{NH(6-Ac-2-naphthyl)}) yielded a λex (absorption/excitation maximum) of 316 nm. Moreover, in data set [2], the cytotoxicity result is recorded as “minimally cytotoxic”. This compound also yielded a δΦ (two-photon action cross-section) in data set [3] of 2.3 GM. In data set [4], the λem (emission maximum) was found to be 448 nm. Besides, the “detection limit of caspase-1 activity” value on caspase-1 is “lowest detection limit”.
